From the supplement of paper PMC11061612

Tests used:
Experiment in all cases: Bliss excess, mean over the matrix (fraction); higher = more synergy
[1] = tested on: FTC-133 (Thyroid Gland Carcinoma)
Procedure, shortened: (§1)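 Cell lines grown in DMEM/F12 or RPMI with 10% FBS were plated in 1536-well plates and held 24 hours at 37°C, 5% CO2 before 72 hours of exposure to two-drug dose matrices, with DMSO typically at 0.2%. CellTiter-Glo 2.0 luminescence gave viability, which was converted to inhibition. Vehicle wells were set to 0 and blank wells to 1. Combination Emax is the second-highest inhibition in the matrix, and Bliss excess is the observed combination effect minus the expected EA + EB − EA·EB, where EA and EB are the single-agent effects.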

BPH-1 (Non-Cancerous) = tested on: BPH-1 (Non-Cancerous)
Procedure, shortened: as §1

[2] = tested on: SNU-16 (Gastric Carcinoma)
Procedure, shortened: as §1

[3] = tested on: SNU-449 (Hepatocellular Carcinoma)
Procedure, shortened: as §1

A673 (Ewing's Sarcoma) = tested on: A673 (Ewing's Sarcoma)
Procedure, shortened: as §1

[4] = tested on: YAPC (Pancreatic Carcinoma)
Procedure, shortened: as §1

NCI-H2052 (Mesothelioma) = tested on: NCI-H2052 (Mesothelioma)
Procedure, shortened: as §1

[5] = tested on: HH (T-Cell Non-Hodgkin's Lymphoma)
Procedure, shortened: as §1

MPP-89 (Mesothelioma) = tested on: MPP-89 (Mesothelioma)
Procedure, shortened: as §1

EW-11 (Ewing's Sarcoma) = tested on: EW-11 (Ewing's Sarcoma)
Procedure, shortened: as §1

[6] = tested on: TGBC1TKB (Biliary Tract Carcinoma)
Procedure, shortened: as §1

GAMG (Glioblastoma) = tested on: GAMG (Glioblastoma)
Procedure, shortened: as §1

[7] = tested on: Detroit562 (Head and Neck Carcinoma)
Procedure, shortened: as §1

[8] = tested on: SW1710 (Bladder Carcinoma)
Procedure, shortened: as §1

[9] = tested on: NUGC-4 (Gastric Carcinoma)
Procedure, shortened: as §1

[10] = tested on: WSU-NHL (B-Cell Non-Hodgkin's Lymphoma)
Procedure, shortened: as §1

[11] = tested on: ALL-PO (B-Lymphoblastic Leukemia)
Procedure, shortened: as §1

NCI-H2722 (Mesothelioma) = tested on: NCI-H2722 (Mesothelioma)
Procedure, shortened: as §1

[12] = tested on: Hs-746T (Gastric Carcinoma)
Procedure, shortened: as §1

[13] = tested on: SW1573 (Lung Adenocarcinoma)
Procedure, shortened: as §1

| Compound | Bliss excess [1] | Bliss excess (BPH-1 (Non-Cancerous)) | Bliss excess [2] | Bliss excess [3] | Bliss excess (A673 (Ewing's Sarcoma)) | Bliss excess [4] | Bliss excess (NCI-H2052 (Mesothelioma)) | Bliss excess [5] | Bliss excess (MPP-89 (Mesothelioma)) | Bliss excess (EW-11 (Ewing's Sarcoma)) | Bliss excess [6] | Bliss excess (GAMG (Glioblastoma)) | Bliss excess [7] | Bliss excess [8] | Bliss excess [9] | Bliss excess [10] | Bliss excess [11] | Bliss excess (NCI-H2722 (Mesothelioma)) | Bliss excess [12] | Bliss excess [13] |
| --- | --- | --- | --- | --- | --- | --- | --- | --- | --- | --- | --- | --- | --- | --- | --- | --- | --- | --- | --- | --- |
| CC(=O)c1c(C)c2cnc(Nc3ccc(N4CCNCC4)cn3)nc2n(C2CCCC2)c1=O [Palbociclib] + Cc1c2c(nn1C)CSCc1cc(n(C)n1)CSc1cc(c3ccccc3c1)OCCCc1c(C(=O)O)n(C)c3c-2c(Cl)ccc13 [AZD5991] (first compound max 10 µM, 7x7, partner max 1 µM) | -0.0515 | -0.0476 | -0.0089 | -0.0187 | -0.0903 | -0.0037 | -0.0298 | -0.131 | -0.021 | 0.0284 | -0.0082 | -0.0142 | -0.0131 | -0.0405 | -0.0486 | -0.0269 | -0.0065 | -0.0649 | -0.0293 | -0.0431 |
| CC1(C)CCC(CN2CCN(c3ccc(C(=O)NS(=O)(=O)c4ccc(NCC5CCOCC5)c([N+](=O)[O-])c4)c(Oc4cnc5[nH]ccc5c4)c3)CC2)=C(c2ccc(Cl)cc2)C1 [Venetoclax] + C1CN(CCC1(C(=O)N[C@@H](CCO)C2=CC=C(C=C2)Cl)N)C3=NC=NC4=C3C=CN4 [Capivasertib] (first compound max 1 µM, 7x7, partner max 3 µM) | -0.0473 | -0.033 | -0.0496 | -0.075 | -0.0551 | -0.0461 | -0.0269 | 0.0213 | -0.0361 | -0.0335 | -0.0535 | -0.0185 | -0.0191 | -0.0896 | -0.0673 | -0.0282 | 0.0446 | -0.0671 | -0.0705 | -0.0428 |
| CS(=O)(=O)CCNCc1ccc(-c2ccc3ncnc(Nc4ccc(OCc5cccc(F)c5)c(Cl)c4)c3c2)o1 [Lapatinib] + C[C@@H](Oc1cc(-c2cnn(C3CCNCC3)c2)cnc1N)c1c(Cl)ccc(F)c1Cl [Crizotinib] (first compound max 10 µM, 7x7, partner max 10 µM) | -0.0012 | -0.0078 | -0.0151 | -0.0453 | -0.0546 | -0.0168 | -0.0676 | -0.0405 | -0.0762 | -0.0233 | -0.0061 | -0.0277 | 0.0107 | -0.078 | 0.0496 | -0.0515 | 0.035 | -0.0713 | 0.0079 | -0.0788 |
| COc1nnc2ccc(N3CCC(c4ccc(OCCN5CCN(C)C(=O)[C@H]5C)cc4)CC3)nn12 [AZD5153] + CCN(CCO)CCCOc1ccc2c(Nc3cc(CC(=O)Nc4cccc(F)c4)[nH]n3)ncnc2c1 [AZD2811] (first compound max 1 µM, 7x7, partner max 1 µM) | -0.0014 | -0.0252 | 0.0728 | -0.0179 | -0.0389 | -0.0203 | -0.0479 | 0.0055 | -0.0396 | -0.06 | 0.0017 | 0.0004 | -0.0804 | -0.052 | -0.0508 | -0.0807 | -0.0134 | -0.0263 | -0.058 | -0.0609 |
| CC1(C)CCC(CN2CCN(c3ccc(C(=O)NS(=O)(=O)c4ccc(NCC5CCOCC5)c([N+](=O)[O-])c4)c(Oc4cnc5[nH]ccc5c4)c3)CC2)=C(c2ccc(Cl)cc2)C1 [Venetoclax] + C[C@@H](Nc1cc(F)cc(F)c1)c1cc(C(=O)N(C)C)cc2c(=O)cc(N3CCOCC3)oc12 [AZD8186] (first compound max 1 µM, 7x7, partner max 3 µM) | -0.0168 | -0.0385 | 0.009 | -0.0583 | -0.023 | -0.048 | -0.0266 | 0.0221 | -0.0096 | -0.0227 | -0.0558 | -0.0453 | -0.0336 | -0.0826 | 0.0298 | 0.0209 | 0.202 | -0.0546 | -0.004 | -0.0556 |
| CC1(C)CCC(CN2CCN(c3ccc(C(=O)NS(=O)(=O)c4ccc(NCC5CCOCC5)c([N+](=O)[O-])c4)c(Oc4cnc5[nH]ccc5c4)c3)CC2)=C(c2ccc(Cl)cc2)C1 [Venetoclax] + Cc1cc2ncnn2cc1Nc1ncc2c(n1)n(C1CCOCC1)c(=O)n2C [AZD7648] (first compound max 1 µM, 7x7, partner max 10 µM) | -0.0156 | -0.0517 | -0.0396 | -0.0699 | -0.0124 | -0.0143 | -0.0019 | -0.0061 | 0.0173 | 0.0082 | -0.043 | -0.024 | -0.0205 | -0.0217 | -0.0714 | -0.082 | 0.11 | -0.042 | -0.0131 | -0.0609 |
| CC1(C)CCC(CN2CCN(c3ccc(C(=O)NS(=O)(=O)c4ccc(NCC5CCOCC5)c([N+](=O)[O-])c4)c(Oc4cnc5[nH]ccc5c4)c3)CC2)=C(c2ccc(Cl)cc2)C1 [Venetoclax] + CN(C)CCCOc1ccc(-c2ccc3ncc4c(c3c2)n(C2CCOCC2)c(=O)n4C)cn1 [AZD0156] (first compound max 1 µM, 7x7, partner max 1 µM) | 0.0019 | -0.0214 | -0.0015 | -0.07 | 0.0265 | -0.02 | -0.0184 | -0.0066 | -0.0182 | 0.0067 | -0.0186 | -0.0225 | -0.0214 | -0.0264 | -0.0644 | -0.0402 | 0.108 | -0.081 | -0.0043 | -0.0553 |
| CC(=O)Nc1cccc(-n2c(=O)n(C3CC3)c(=O)c3c(Nc4ccc(I)cc4F)n(C)c(=O)c(C)c32)c1 [Trametinib] + Cc1nc(-c2cn3c(n2)-c2ccc(-c4cnn(C(C)(C)C(N)=O)c4)cc2OCC3)n(C(C)C)n1 [Taselisib] (first compound max 1 µM, 7x7, partner max 10 µM) | -0.046 | 0.0283 | 0.257 | -0.0432 | 0.229 | 0.246 | -0.0231 | 0.0868 | 0.103 | 0.0443 | 0.0385 | 0.0415 | 0.108 | 0.016 | 0.0347 | 0.0079 | 0.318 | -0.0078 | 0.0172 | 0.0334 |
| COc1nnc2ccc(N3CCC(c4ccc(OCCN5CCN(C)C(=O)[C@H]5C)cc4)CC3)nn12 [AZD5153] + Cc1c2c(nn1C)CSCc1cc(n(C)n1)CSc1cc(c3ccccc3c1)OCCCc1c(C(=O)O)n(C)c3c-2c(Cl)ccc13 [AZD5991] (first compound max 1 µM, 7x7, partner max 1 µM) | -0.0112 | -0.0093 | 0.0403 | -0.0368 | 0.0041 | -0.0355 | -0.018 | 0.0776 | -0.0399 | 0.111 | 0.0069 | -0.0043 | -0.0459 | -0.0389 | 0.0081 | 0.01 | 0.0091 | -0.016 | -0.0244 | -0.0366 |
| CC(=O)c1c(C)c2cnc(Nc3ccc(N4CCNCC4)cn3)nc2n(C2CCCC2)c1=O [Palbociclib] + Cn1cnc2c(F)c(Nc3ccc(Br)cc3Cl)c(C(=O)NOCCO)cc21 [Selumetinib] (first compound max 10 µM, 7x7, partner max 10 µM) | -0.0403 | -0.0755 | 0.0339 | -0.0006 | -0.009 | 0.0156 | -0.0124 | -0.0471 | -0.0394 | -0.0298 | -0.0251 | -0.0072 | -0.0041 | 0.0054 | -0.0292 | 0.107 | 0.0243 | -0.069 | -0.0475 | -0.0288 |
| CC1(C)CCC(CN2CCN(c3ccc(C(=O)NS(=O)(=O)c4ccc(NCC5CCOCC5)c([N+](=O)[O-])c4)c(Oc4cnc5[nH]ccc5c4)c3)CC2)=C(c2ccc(Cl)cc2)C1 [Venetoclax] + C=CCn1c(=O)c2cnc(Nc3ccc(N4CCN(C)CC4)cc3)nc2n1-c1cccc(C(C)(C)O)n1 [AZD1775] (first compound max 1 µM, partner max 1 µM) | 0.0065 | -0.0548 | -0.0478 | -0.0353 | 0.112 | -0.0356 | -0.0145 | 0.029 | 0.1 | 0.0341 | -0.039 | 0.0112 | -0.0478 | -0.0519 | -0.0733 | -0.0036 | 0.136 | -0.0631 | -0.115 | -0.0427 |
| CCN(CCO)CCCOc1ccc2c(Nc3cc(CC(=O)Nc4cccc(F)c4)[nH]n3)ncnc2c1 [AZD2811] + C=CCn1c(=O)c2cnc(Nc3ccc(N4CCN(C)CC4)cc3)nc2n1-c1cccc(C(C)(C)O)n1 [AZD1775] (first compound max 1 µM, partner max 1 µM) | 0.0641 | -0.0007 | 0.0538 | -0.0028 | -0.0838 | -0.0392 | -0.0485 | -0.0179 | -0.0173 | 0.0003 | -0.0195 | 0.0224 | 0.05 | 0.0084 | -0.0708 | -0.0761 | 0.0382 | 0.023 | 0.0312 | 0.0297 |
| COc1nnc2ccc(N3CCC(c4ccc(OCCN5CCN(C)C(=O)[C@H]5C)cc4)CC3)nn12 [AZD5153] + C=CCn1c(=O)c2cnc(Nc3ccc(N4CCN(C)CC4)cc3)nc2n1-c1cccc(C(C)(C)O)n1 [AZD1775] (first compound max 1 µM, partner max 1 µM) | -0.0099 | 0.0246 | -0.0385 | -0.0033 | -0.055 | -0.0403 | -0.0882 | -0.0442 | -0.0669 | -0.0976 | 0.015 | -0.0516 | -0.0535 | -0.0582 | -0.0478 | -0.0255 | -0.0198 | 0.0139 | -0.0556 | -0.0388 |
| Cn1cnc2c(F)c(Nc3ccc(Br)cc3Cl)c(C(=O)NOCCO)cc21 [Selumetinib] + C=CCn1c(=O)c2cnc(Nc3ccc(N4CCN(C)CC4)cc3)nc2n1-c1cccc(C(C)(C)O)n1 [AZD1775] (first compound max 10 µM, partner max 1 µM) | -0.0465 | 0.0209 | 0.0433 | -0.0413 | -0.0806 | 0.016 | -0.0747 | -0.0605 | -0.0131 | -0.0464 | 0.0366 | 0.0063 | 0.0123 | -0.0409 | -0.0286 | -0.0066 | 0.0229 | -0.046 | -0.0275 | -0.0582 |
